Experimental data published in PubChem BioAssay AID179 (DTP/NCI, 2004).
Several values for one entry are separate records, joined by “and”; a condition that tells them apart may be missing. Equal values may be shown once. Activity calls are given as the source filed them.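 Rule for the calls: active = compounds giving half or more protection of infected cells from virus-caused growth loss, again on retest; inactive = the rest.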

Test system: CEM cells HIV-1 protection, formazan growth assay
Experiment: NCI AIDS Antiviral Assay
Conditions: for IC50: measured here: growth of uninfected CEM cells
Method in brief: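 Category rules: moderately active means at least 50% protection on retest, and confirmed active means 100% protection reproducibly. The underlying data came from a formazan growth assay in HIV-1-infected CEM cells.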

| Structure (SMILES) | EC50 [µM] | IC50 | outcome |
| --- | --- | --- | --- |
| O=c1[nH]c2cc([N+](=O)[O-])ccc2nc1/C(=N/Nc1ccccc1)C(O)c1ccc(Cl)cc1Cl (configuration not stated) | > 269 | 148 µM |  |
| Cc1ccc(SCC(CF)OCn2cc(F)c(=O)[nH]c2=O)cc1 (configuration not stated) | > 200 | 123 µM |  |
| O=C(OOC(=O)c1ccccc1)c1ccccc1 | > 200 | > 200 µM |  |
| O=C(NC(=O)c1ccccc1[N+](=O)[O-])Nc1ccc(Oc2ncc(Cl)cn2)c(C(F)(F)F)c1 |  |  | inactive |
| CNC(=O)NCCN1N=C(C)/C(=C\c2ccccc2)CC1=O |  |  | inactive |
| COc1cccc2c1[C@]1(O)C(O)CCCC21 (some centres not stated) | > 200 | > 200 µM |  |
| Nc1ncnc2c1S(=O)(=O)NCN2 | > 178 | > 178 µM |  |
| CO[C@@]12[C@@H]3N[C@@H]3CN1C1=C(C(=O)C(N(C)c3ccc(O)cc3)=C(C)C1=O)[C@@H]2COC(N)=O | > 200 | 1.35 µM |  |
| Clc1cc(Cl)nc(Nc2ccc3c(c2)CCC3)n1 | > 200 | 28.2 µM |  |
| Cc1ccc(S(=O)(=O)N/N=C2\CCC3(O)CC2(C)CCC2C3CC2(C)C)cc1 (configuration not stated) | 28.2 | 51.3 µM |  |
| Nc1c(C(=O)N/N=C/c2ccc(Cl)cc2)sc(=S)n1-c1ccccc1 | > 3.72 | > 3.72 µM |  |
| C1=Cc2ccccc2/C1=C/c1cc2c3c(c1)CCCN3CCC2 | > 43.7 | > 43.7 µM |  |
| CC(=O)n1[nH]c(=O)n(-c2ccc(Cl)cc2)c1=O | > 200 | > 200 µM |  |
| NC(=O)SCC(=O)NNc1ccccc1 | > 200 | 4.47 µM |  |
| Cc1cc(NS(=O)(=O)c2ccc(N=Nc3cc(S(=O)(=O)O)c4ccccc4c3O)cc2)ccc1N=Nc1ccc2cc(S(=O)(=O)O)cc(S(=O)(=O)O)c2c1 |  |  | active |
| Cc1ccc(N2COc3ccc4ccccc4c3C2)cc1 | > 200 | 26.3 µM |  |
| CC1CCC2(C(=O)O)CCC3(C)C(=CCC4C5(C)CCC(O)C(C)(C)C5CCC43C)C2C1C (configuration not stated) | > 200 | 14.8 µM |  |
| O=P1(Nc2ccccc2)OCCCN1Cc1ccc(Cl)c(Cl)c1 (configuration not stated) | > 200 | 53.7 µM |  |
| CC1(C)CC(N(C(=O)/C=C/c2ccc([N+](=O)[O-])o2)C2CCCCC2)CC(C)(C)N1 | > 32.4 | 17.4 µM |  |
| COc1ccccc1NC(=O)C1=C(C)NC(C)=C(C(=O)Nc2ccccc2OC)C1c1ccc([N+](=O)[O-])cc1 | > 9.77 | > 9.77 µM |  |
| Cc1ccc([N+](=O)[O-])cc1NC(=O)C(=O)Cc1cc(=O)oc2cc(O)ccc12 | > 468 | 363 µM |  |

| Structure (SMILES) | EC50 [µM] | IC50 | outcome |
| --- | --- | --- | --- |
| COc1ccc2ccccc2c1-c1cccc2ccccc12 | > 200 | 32.4 µM |  |
| Cc1cccc(C(C)(C)C)c1NC(=O)CCc1nc(=S)[nH][nH]1 | > 562 | 240 µM |  |
| O=C1CC(c2ccc[nH]2)=NN1c1ccccc1 | > 200 | 83.2 µM |  |
| Cc1cn([C@H]2C[C@@H](N3C(=O)c4ccccc4C3=O)[C@@H](CO[Si](C)(C)C(C)(C)C)O2)c(=O)[nH]c1=O | > 200 | 151 µM |  |
| CC1CCc2c(sc3ncnc(N/N=C/c4ccc(Cl)c(Cl)c4)c23)C1 (configuration not stated) | > 25.7 | > 25.7 µM |  |
| COc1ccc(-c2ccc(CC(=O)O)cc2)cc1OC | > 36.3 | > 36.3 µM |  |
| CC1(C)O[C@]2(C)CC[C@@H]1[C@@H](O)[C@@H]2N1CCCCC1 | > 380 | > 380 µM |  |
| COc1cccc(/C=C(/C(C)=O)C(=O)c2ccccc2)c1 |  |  | inactive |
| CCN(CC)C(=O)O/N=C/c1ccccc1 | > 200 | > 200 µM |  |
| COc1ccc2c(c1)nc1n2C(c2c(F)cccc2Cl)SC1 (configuration not stated) | > 200 | 4.17 µM |  |
| O=S(=O)(Cc1ccccc1)c1nnc(S(=O)(=O)c2ccc(Cl)cc2)s1 | > 200 | 5.5 µM |  |
| Cc1cc2c(=O)c3ccccc3oc2c(C#N)c1C | > 20 | > 20 µM |  |
| O=[N+]([O-])c1ccc(NSc2ccccc2)cc1 | > 200 | 9.33 µM |  |
| CN(NC(=O)/C(=C/c1ccc(O)cc1)NC(=O)c1ccccc1)c1ccnc2cc(Cl)ccc12 | > 200 | 10.2 µM |  |
| COc1cc(N=Nc2ccccc2C(=O)O)cc(/C=N\NNC(N)=S)c1O | > 67.6 | 32.4 µM |  |
| Nc1ccc(SSc2ccc(N)cc2)cc1 | > 200 | 25.1 µM and 29.5 µM |  |
| N#CC(c1ccc(Cl)cc1)c1cccc(C(C#N)c2ccc(Cl)cc2)n1 (configuration not stated) | > 661 | > 661 µM |  |
| CC1(C)O[C@]2(C)CC[C@@H]1[C@@H](O)[C@@H]2N1CCCC1 | > 417 | > 417 µM |  |
| NNc1c(C(N)=O)c2c(N)ncnc2n1C1OC(CO)C(O)C1O (configuration not stated) | > 0.2 | 0.00912 µM |  |
| COCn1c(=O)n(C)c(=O)c2c1nc1c(c(=O)n(C)c(=O)n1COC)[n+]2[O-] | > 200 | 5.25 µM |  |
| c1ccc(Oc2cccc(Oc3ccc4c(c3)-c3nc-4nc4[nH]c(nc5nc(nc6[nH]c(n3)c3ccc(Oc7cccc(Oc8ccccc8)c7)cc63)-c3cc(Oc6cccc(Oc7ccccc7)c6)ccc3-5)c3ccc(Oc5cccc(Oc6ccccc6)c5)cc43)c2)cc1 | > 3.02 | > 3.02 µM |  |

| Structure (SMILES) | EC50 [µM] | IC50 | outcome |
| --- | --- | --- | --- |
| COC(=O)C1CCCN1C(=O)C(Cc1cn(S(=O)(=O)c2ccc(C)cc2)cn1)NC(=O)OC(C)(C)C (configuration not stated) | > 200 | > 200 µM |  |
| CC(C)C12C=C3CCC4C(C)(C(=O)O)CCCC4(C)C3(CC1)OO2 (configuration not stated) | > 741 | 162 µM |  |
| CCOC(=O)C1C(c2ccco2)C2(C#N)C(=N)OC1(C)C2(C#N)C#N (configuration not stated) | > 200 | 64.6 µM |  |
| CC(C)(C)c1ccc(OCCOc2ccc(C(C)(C)C)cc2NC=O)c(NC=O)c1 | > 200 | 5.13 µM |  |
| NC(N)=N/N=C/c1c(-c2ccc(Cl)cc2)nc2sccn12 | > 200 | 3.39 µM |  |
| COC(=O)c1cc(C(=CC=O)c2cc(Cl)c(OC)c(C(=O)OC)c2)cc(Cl)c1OC | > 200 | 8.91 µM |  |
| O=P(O)(O)CC1OC(CO)C(O)C1O (configuration not stated) | > 200 | > 200 µM |  |
| C#CCN(N=O)C(=O)NCCCCC(NC(=O)OCc1ccccc1)C(=O)OCc1ccccc1 (configuration not stated) | > 28.2 | > 28.2 µM |  |
| COc1cc2c(c3oc(=O)cc(C)c13)[C@@H](OC(=O)C13CCC(C)(C(=O)O1)C3(C)C)[C@@H](OC(=O)C13CCC(C)(C(=O)O1)C3(C)C)C(C)(C)O2 (some centres not stated) | 0.324 | > 200 µM |  |
| CC[N+](C)(CC)CCC[N+]12CCC(CC1)CC2 | > 631 | > 631 µM |  |
| C=C1C2CCC3(C4C[C@H]5C6(CCC[C@@]5(C)[C@H]5OCCN5[C@H]6O4)[C@@H]3C2)C1OC(C)=O (some centres not stated) | > 12.9 | > 12.9 µM |  |
| CN1CCCC2(CCCc3ccccc32)C1 (configuration not stated) | > 1000 | 257 µM |  |
| COc1ccc(-c2c(C3=NCCN3)nnn2-c2ccccc2)cc1 | > 295 | > 295 µM |  |
| COC(=O)c1ccccc1CC1Cc2ccc3c(c2C1=O)CCCC3 (configuration not stated) | > 200 | > 200 µM |  |
| Cc1nc(C(=Nc2ccc(Br)cc2)Nn2cnnc2)no1 | > 200 |  |  |
| CCC1(CC)C(=O)NN(C(=O)c2ccccc2)C1=O | > 200 | > 200 µM |  |
| O=C(c1nc2ccc([N+](=O)[O-])cc2[nH]c1=O)C(O)c1ccc2c(c1)OCO2 (configuration not stated) | > 676 | 245 µM |  |
| COc1ccc(-n2sc3ncc(-c4ccccc4)cc3c2=O)cc1 | 7.08 | 35.5 µM |  |
| CCSC(CCC(NC(C)=O)(C(=O)O)C(=O)O)SCC | > 200 | > 200 µM |  |
| O=C(CCCl)NNC1=NCCCCN1 | > 200 | > 200 µM |  |
| O=[As](O)(O)c1ccc(F)cc1 | > 200 | > 200 µM |  |

| Structure (SMILES) | EC50 [µM] | IC50 | outcome |
| --- | --- | --- | --- |
| NNC(N)=Nc1cccc2ccccc12 | > 200 | > 200 µM |  |
| CC(=O)N1C(=O)C(C)(C2=CC(=O)c3ccccc3C2=O)c2ccc(Br)cc21 (configuration not stated) | > 200 | 2.29 µM |  |
| CCCCNS(=O)(=O)c1ccc(-c2c3nc(c(-c4ccc(S(=O)(=O)NCCCC)cc4)c4ccc([nH]4)c(-c4ccc(S(=O)(=O)NCCCC)cc4)c4nc(c(-c5ccc(S(=O)(=O)NCCCC)cc5)c5ccc2[nH]5)C=C4)C=C3)cc1 | > 200 | > 200 µM |  |
| COC(=O)c1c(C)cc(C)cc1OC | > 200 | 151 µM |  |
| Nc1c(-c2ccccc2[N+](=O)[O-])nc2ccccn12 | > 513 | 120 µM |  |
| O=C(C1OC1c1ccc(Cl)cc1)C12CC3CC(CC(C3)C1)C2 (configuration not stated) | > 200 | 18.2 µM |  |
| COc1cc(NCc2ccc3nc(OC)c(OC)nc3c2)cc(OC)c1OC | > 200 | > 200 µM |  |
| CSC(SC)=C(C#N)C(=O)Nc1cccc(Cl)c1 | > 200 | 30.2 µM |  |
| S=C(NCCc1ccccn1)N/N=C(\c1ccccc1)c1ccccn1 | > 0.2 | 0.0676 µM |  |
| CC1=C2C(c3ccccc3)(c3ccccc3)C3C=CC2(C=N3)N(C(=O)NC2CCCCC2)C1=O (configuration not stated) | > 11.5 | > 11.5 µM |  |
| COc1cc(O)c2c(c1)cc(O)c1c(=O)cc(C)oc12 | > 195 | 10.5 µM |  |
| COC(=O)C1OC(OC2=C(c3ccc(OC)cc3)C(=O)C(OC3OC(C(=O)OC)C(OC(C)=O)C(OC(C)=O)C3OC(C)=O)=C(c3ccc(OC)cc3)C2=O)C(OC(C)=O)C(OC(C)=O)C1OC(C)=O (configuration not stated) | > 28.8 | 4.57 µM |  |
| COc1ccccc1-n1c(C)nc2ccccc2c1=O | > 186 | > 186 µM |  |
| CCSc1nnc(-c2ccccc2)nc1Cc1ccc(OC)cc1 | > 14.8 | > 14.8 µM |  |
| CC(=O)OC1CC2(C)OC(Cc3ccccc32)O1 (configuration not stated) | > 200 | > 200 µM |  |
| CCCCCCCC(=O)OCC1OC(n2cc(F)c(=O)[nH]c2=O)C(N)C(O)C1O (configuration not stated) | > 309 | > 309 µM |  |
| CCCCCCCCCCCCCCCCOCC(COC1OC(CS(=O)(=O)O)C(O)C(O)C1O)OCCCCCCCCCCCCCCCC (configuration not stated) | 100 | 123 µM |  |
| O=C1c2ccccc2C(=O)N1n1c(Cc2ccc([N+](=O)[O-])cc2)n[nH]c1=O | > 200 | > 200 µM |  |
| C[C@@H]([C@H]1[C@H](O)C[C@@]2(C)[C@@H]3C=C[C@H]4C(C)(C)[C@@H](N(C)C)CC[C@@]45C[C@@]35CC[C@]12C)N(C)C | > 100 | > 100 µM |  |
| Cn1c(=O)c2c(nc3n2CC(=O)N3CCCCl)n(C)c1=O | 85.1 | > 200 µM |  |
| COc1ccc2c(c1)OCCCN(C)OC2c1ccccc1 (configuration not stated) |  |  | inactive |
